According to patent US20090155387A1, “STABLE PHARMACEUTICAL COMPOSITION COMPRISING BETA-LACTAM ANTIBIOTIC AND ION-CHELATING AGENT” (priority 2006, published 2009):

Assay: Amounts of β-lactam antibiotic, β-lactamase inhibitor and aminoglycoside antibiotic in solution over time (reverse-phase LC/HPLC)
Assay type: physicochemical
Description: The amounts of β-lactam antibiotics and β-lactamase inhibitor were determined using C18 reverse-phase LC and UV-VIS detector (Tianjin […] Co., Ltd., analysis method No. HM-K-03). The content of aminoglycoside antibiotics was measured using reverse-phase HPLC and evaporation-light-scattering detector (ELSD detector) (Tianjin […] Co., Ltd., analysis method No. HM-K-08). The amount of antibiotic component at each time point was expressed as a percentage with respect to the amount at the initial time. The relative amount of each antibiotic component in the composition at each time point was expressed as peak area ratio with respect to the corresponding peak area of an external standard.

CO/N=C(\C(=O)N[C@@H]1C(=O)N2C(C(=O)O)=C(CSc3nc(C)c(CC(=O)O)s3)CS[C@H]12)c1csc(N)n1 [Cefodizime sodium]
amount (percentage of initial amount) (in Example 10 solution, pH 6.5, room temperature, 0 h): 92.06%
amount (percentage of initial amount) (in Example 10 solution, pH 6.5, room temperature, 1 h): 99.84%
amount (percentage of initial amount) (in Example 10 solution, pH 6.5, room temperature, 2 h): 99.73%
amount (percentage of initial amount) (in Example 10 solution, pH 6.5, room temperature, 4 h): 98.64%
amount (percentage of initial amount) (in Example 10 solution, pH 6.5, room temperature, 6 h): 94.27%
amount (percentage of initial amount) (in Example 10 solution, pH 6.5, room temperature, 8 h): 96.48%
amount (percentage of initial amount) (in Example 25 solution, pH 6.75, room temperature, 0 h): 100.9%
amount (percentage of initial amount) (in Example 25 solution, pH 6.75, room temperature, 1 h): 104.6%
amount (percentage of initial amount) (in Example 25 solution, pH 6.75, room temperature, 2 h): 100.1%
amount (percentage of initial amount) (in Example 25 solution, pH 6.75, room temperature, 4 h): 81.34%
amount (percentage of initial amount) (in Example 25 solution, pH 6.75, room temperature, 6 h): 103.7%
amount (percentage of initial amount) (in Example 25 solution, pH 6.75, room temperature, 8 h): 102.2%

CCN1CCN(C(=O)N[C@@H](C(=O)N[C@@H]2C(=O)N3C(C(=O)O)=C(CSc4nnnn4C)CS[C@H]23)c2ccc(O)cc2)C(=O)C1=O [Cefoperazone sodium]
amount (percentage of initial amount) (in Example 4 solution (no EDTA), pH 6.75, room temperature, 0 h): 101.4%
amount (percentage of initial amount) (in Example 4 solution (no EDTA), pH 6.75, room temperature, 1 h): 98.66%
amount (percentage of initial amount) (in Example 4 solution (no EDTA), pH 6.75, room temperature, 2 h): 98.79%
amount (percentage of initial amount) (in Example 4 solution (no EDTA), pH 6.75, room temperature, 4 h): 101.5%
amount (percentage of initial amount) (in Example 4 solution (no EDTA), pH 6.75, room temperature, 6 h): 107.4%
amount (percentage of initial amount) (in Example 5 solution, pH 6.75, room temperature, 0 h): 101.4%
amount (percentage of initial amount) (in Example 5 solution, pH 6.75, room temperature, 1 h): 98.66%
amount (percentage of initial amount) (in Example 5 solution, pH 6.75, room temperature, 2 h): 98.79%
amount (percentage of initial amount) (in Example 5 solution, pH 6.75, room temperature, 4 h): 101.5%
amount (percentage of initial amount) (in Example 5 solution, pH 6.75, room temperature, 6 h): 107.4%
amount (percentage of initial amount) (in Example 6 solution, pH 6.5, room temperature, 0 h): 110.4%
amount (percentage of initial amount) (in Example 6 solution, pH 6.5, room temperature, 1 h): 99.48%
amount (percentage of initial amount) (in Example 6 solution, pH 6.5, room temperature, 2 h): 101.3%
amount (percentage of initial amount) (in Example 6 solution, pH 6.5, room temperature, 4 h): 98.66%
amount (percentage of initial amount) (in Example 6 solution, pH 6.5, room temperature, 6 h): 98.02%
amount (percentage of initial amount) (in Example 6 solution, pH 6.5, room temperature, 8 h): 99.30%
amount (percentage of initial amount) (in Example 12 solution (no aminoglycoside) from freeze-dried powder stored 7 days at 0° C., redissolved, 0 h): 100.2%
amount (percentage of initial amount) (in Example 12 solution (no aminoglycoside) from freeze-dried powder stored 7 days at 0° C., redissolved, 1 h): 99.0%
amount (percentage of initial amount) (in Example 12 solution (no aminoglycoside) from freeze-dried powder stored 7 days at 0° C., redissolved, 2 h): 99.0%
amount (percentage of initial amount) (in Example 12 solution (no aminoglycoside) from freeze-dried powder stored 7 days at 0° C., redissolved, 4 h): 96.2%
amount (percentage of initial amount) (in Example 12 solution (no aminoglycoside) from freeze-dried powder stored 7 days at 0° C., redissolved, 6 h): 94.5%
amount (percentage of initial amount) (in Example 12 solution (no aminoglycoside) from freeze-dried powder stored 7 days at 0° C., redissolved, 8 h): 95.3%
amount (percentage of initial amount) (in Example 13 solution (Example 12 solution + etimicin sulfate), 0 h): 100.2%
amount (percentage of initial amount) (in Example 13 solution (Example 12 solution + etimicin sulfate), 1 h): 99.0%
amount (percentage of initial amount) (in Example 13 solution (Example 12 solution + etimicin sulfate), 2 h): 99.0%
amount (percentage of initial amount) (in Example 13 solution (Example 12 solution + etimicin sulfate), 4 h): 96.2%
amount (percentage of initial amount) (in Example 13 solution (Example 12 solution + etimicin sulfate), 6 h): 94.5%
amount (percentage of initial amount) (in Example 13 solution (Example 12 solution + etimicin sulfate), 8 h): 95.3%
amount (percentage of initial amount) (in Example 14 solution, pH 6.5, room temperature, 0 h): 98.42%
amount (percentage of initial amount) (in Example 14 solution, pH 6.5, room temperature, 1 h): 97.39%
amount (percentage of initial amount) (in Example 14 solution, pH 6.5, room temperature, 2 h): 97.46%
amount (percentage of initial amount) (in Example 14 solution, pH 6.5, room temperature, 4 h): 94.70%
amount (percentage of initial amount) (in Example 14 solution, pH 6.5, room temperature, 6 h): 93.02%
amount (percentage of initial amount) (in Example 15 solution, pH 6.5, room temperature, 0 h): 101.7%
amount (percentage of initial amount) (in Example 15 solution, pH 6.5, room temperature, 1 h): 96.06%
amount (percentage of initial amount) (in Example 15 solution, pH 6.5, room temperature, 2 h): 95.72%
amount (percentage of initial amount) (in Example 15 solution, pH 6.5, room temperature, 4 h): 97.32%
amount (percentage of initial amount) (in Example 15 solution, pH 6.5, room temperature, 6 h): 69.95%
amount (percentage of initial amount) (in Example 16 solution, pH 6.5, room temperature, 0 h): 102.9%
amount (percentage of initial amount) (in Example 16 solution, pH 6.5, room temperature, 1 h): 108.6%
amount (percentage of initial amount) (in Example 16 solution, pH 6.5, room temperature, 2 h): 104.6%
amount (percentage of initial amount) (in Example 16 solution, pH 6.5, room temperature, 4 h): 99.50%
amount (percentage of initial amount) (in Example 16 solution, pH 6.5, room temperature, 6 h): 98.91%
amount (percentage of initial amount) (in Example 16 solution, pH 6.5, room temperature, 8 h): 103.4%
amount (percentage of initial amount) (in Example 19 solution, pH 6.75, room temperature, 0 h): 95.91%
amount (percentage of initial amount) (in Example 19 solution, pH 6.75, room temperature, 1 h): 97.01%
amount (percentage of initial amount) (in Example 19 solution, pH 6.75, room temperature, 2 h): 95.94%
amount (percentage of initial amount) (in Example 19 solution, pH 6.75, room temperature, 4 h): 95.86%
amount (percentage of initial amount) (in Example 19 solution, pH 6.75, room temperature, 6 h): 95.41%
amount (percentage of initial amount) (in Example 19 solution, pH 6.75, room temperature, 8 h): 95.22%
amount (percentage of initial amount) (in Example 20 solution (no EDTA), pH 6.75, room temperature, 0 h): 92.30%
amount (percentage of initial amount) (in Example 20 solution (no EDTA), pH 6.75, room temperature, 1 h): 94.80%
amount (percentage of initial amount) (in Example 20 solution (no EDTA), pH 6.75, room temperature, 2 h): 94.06%
amount (percentage of initial amount) (in Example 20 solution (no EDTA), pH 6.75, room temperature, 4 h): 94.12%
amount (percentage of initial amount) (in Example 20 solution (no EDTA), pH 6.75, room temperature, 6 h): 93.15%
amount (percentage of initial amount) (in Example 20 solution (no EDTA), pH 6.75, room temperature, 8 h): 94.50%
amount (percentage of initial amount) (in Example 21 solution, pH 6.75, room temperature (22° C.), 0 h): 92.44%
amount (percentage of initial amount) (in Example 21 solution, pH 6.75, room temperature (22° C.), 1 h): 104.6%
amount (percentage of initial amount) (in Example 21 solution, pH 6.75, room temperature (22° C.), 2 h): 102.4%
amount (percentage of initial amount) (in Example 21 solution, pH 6.75, room temperature (22° C.), 4 h): 97.95%
amount (percentage of initial amount) (in Example 21 solution, pH 6.75, room temperature (22° C.), 6 h): 98.90%
amount (percentage of initial amount) (in Example 21 solution, pH 6.75, room temperature (22° C.), 8 h): 102.9%
